Series [1] is described as follows: Assay (IV) determination of solubility. The class given is physicochemical. An outline of the steps:
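Polypeptide in water (~500 nmol/ml stock) was mixed 1:1 with 100 mM buffers from pH 3.0 to 8.0 (glycylglycine pH 3.0–5.0; bistrispropane pH 6.0–8.0). After 18 hours at room temperature, samples were centrifuged and the polypeptide remaining in solution was quantified by HPLC.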

Series [2] has as its target T1, human calcitonin receptor (Homo sapiens, UniProt P30988).
T1 construct: expressed in transfected cells; host or cells: BHK570
T1 sequence (P30988 25-474): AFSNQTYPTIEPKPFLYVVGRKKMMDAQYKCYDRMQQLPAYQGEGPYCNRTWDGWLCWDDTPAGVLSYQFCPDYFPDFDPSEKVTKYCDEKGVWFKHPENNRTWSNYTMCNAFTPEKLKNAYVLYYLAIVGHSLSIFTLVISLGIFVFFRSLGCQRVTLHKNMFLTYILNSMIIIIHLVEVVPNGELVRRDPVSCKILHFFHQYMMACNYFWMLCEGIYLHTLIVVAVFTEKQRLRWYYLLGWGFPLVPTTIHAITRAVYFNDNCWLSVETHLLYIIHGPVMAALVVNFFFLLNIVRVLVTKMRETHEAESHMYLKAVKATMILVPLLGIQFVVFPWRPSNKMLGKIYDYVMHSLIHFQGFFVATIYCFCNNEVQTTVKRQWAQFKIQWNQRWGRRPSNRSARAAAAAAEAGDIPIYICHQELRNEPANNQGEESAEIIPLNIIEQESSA
Put plainly: Assay (II)a functional CRE-luciferase assay, human calcitonin receptor. The class given is cell-based. To be noted: Table 7; human calcitonin (CTa) receptor.

Series [3] concerns the target T2, human amylin receptor (amylin 3(a) receptor: human calcitonin receptor + RAMP-3) (Homo sapiens, UniProt O60896+P30988).
T2 construct: expressed in transfected cells; host or cells: BHK570
T2 sequence (P30988 25-474): T1 sequence (P30988 25-474)
T2 sequence (O60896 24-148 partner): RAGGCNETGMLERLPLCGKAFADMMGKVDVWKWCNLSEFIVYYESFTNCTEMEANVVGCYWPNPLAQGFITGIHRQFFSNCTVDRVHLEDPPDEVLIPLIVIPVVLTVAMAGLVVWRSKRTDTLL
Put plainly: Assay (II)a functional CRE-luciferase assay, human amylin receptor. In kind it is cell-based. Conditions: Table 2; BHK amylin 3(a)-receptor/CRE-luc cells.

The mark [4] stands for this setting: bistrispropane buffer, pH 6, pH 6.0, read-out: Solubility pH 6.0.
The mark [5] stands for this setting: bistrispropane buffer, pH 6.5, pH 6.5, read-out: Solubility pH 6.5.
[6] abbreviates: bistrispropane buffer, pH 7, pH 7.0, 18 hours at room temperature, Table 3, read-out: Solubility pH 7.0.
[7] abbreviates: bistrispropane buffer, pH 7, pH 7.0, Table 8, read-out: Solubility pH 7.0.
The mark [8] stands for this setting: bistrispropane buffer, pH 7, pH 7.0, read-out: Solubility pH 7.0.
Setting [9] is: bistrispropane buffer, pH 7.5, pH 7.5, read-out: Solubility pH 7.5.
Setting [10] is: bistrispropane buffer, pH 8, pH 8.0, read-out: Solubility pH 8.0.
Setting [11] is: glycylglycine buffer, pH 3, pH 3.0, read-out: Solubility pH 3.0.
[12] abbreviates: glycylglycine buffer, pH 4, pH 4.0, 18 hours at room temperature, Table 2, read-out: Solubility pH 4.0.
The mark [13] stands for this setting: glycylglycine buffer, pH 4, pH 4.0, read-out: Solubility pH 4.0.
[14] abbreviates: glycylglycine buffer, pH 5, pH 5.0, read-out: Solubility pH 5.0.

Values after ≈ are worked out from the molar mass of the structure shown. Like-named read-outs stand apart in the source and are kept apart here. Starred links: 1 amine or outer side, 2 acyl side, 3 side chain; linkers in the order of their positions; H or OH if unused. Positions of bridges follow the written chain, without caps; N, C: chain ends. Residues, ends and D or L forms follow the SMILES beside them. *: point of attachment. C20 diacid = O=C(O)CCCCCCCCCCCCCCCCCCC(=O)*; C18 diacid = O=C(O)CCCCCCCCCCCCCCCCC(=O)*; γGlu = O=C(O)[C@H](CCC(=O)[*:2])N[*:1]

Results on three compounds are retold here after patent US8722849B2, “Polypeptides” (Novo Nordisk A/S, priority 2011, dated 2014).

The term solubility denotes the concentration that dissolves in the medium under given conditions. By EC50 is commonly meant the concentration giving half of the maximal effect.

On to `CC[C@H](C)[C@H](NC(=O)[C@@H]1CCCN1C(=O)CNC(=O)[C@H](Cc1ccccc1)NC(=O)[C@H](CC(N)=O)NC(=O)[C@H](CC(N)=O)NC(=O)[C@H](CO)NC(=O)[C@H](CO)NC(=O)[C@H](Cc1c[nH]cn1)NC(=O)[C@H](Cc1c[nH]cn1)NC(=O)[C@H](CC(C)C)NC(=O)[C@H](Cc1ccccc1)NC(=O)[C@H](CCC(=O)O)NC(=O)[C@H](C)NC(=O)[C@H](CC(C)C)NC(=O)[C@H](CCCNC(=N)N)NC(=O)[C@H](CCC(N)=O)NC(=O)[C@@H](NC(=O)[C@H](C)NC(=O)[C@@H]1CSSC[C@H](NC(=O)[C@H](CCCCN)NC(=O)CC[C@H](NC(=O)CCCCCCCCCCCCCCCCC(=O)O)C(=O)O)C(=O)N[C@@H](CC(N)=O)C(=O)N[C@@H]([C@@H](C)O)C(=O)N[C@@H](C)C(=O)N[C@@H]([C@@H](C)O)C(=O)N1)[C@@H](C)O)C(=O)N[C@@H](CC(C)C)C(=O)N1CCC[C@H]1C(=O)N1CCC[C@H]1C(=O)N[C@H](C(=O)N[C@@H](CC(N)=O)C(=O)N[C@H](C(=O)NCC(=O)N[C@@H](CO)C(=O)N[C@@H](Cc1c[nH]cn1)C(=O)N[C@H](C(=O)N[C@@H](Cc1ccc(O)cc1)C(N)=O)[C@@H](C)O)C(C)C)[C@@H](C)O` [Example 59, N-alpha-[(S)-4-Carboxy-4-(17-carboxyheptadecanoylamino)butyryl]-[Glu14,His17,His35]-pramlintide] ({C18 diacid-γGlu}-KCNTATCATQRLAEFLHHSSNNFGPILPPTNVGSHTY-NH2; disulfide 2-7 (inferred)), for which the solubility at 18 h in series [1] (setting [4]) is greater than 200 µM; in series [1] (setting [5]) it was greater than 200 µM; in series [1] (setting [6]) it was greater than 200 µM; in series [1] (setting [7]), greater than 200 µM; in series [1] (bistrispropane buffer, pH 7, pH 7.0, Table 9, read-out: Solubility pH 7.0) it was greater than 200 µM; in series [1] (setting [8]), greater than 200 µM. Also, the solubility at 18 h in series [1] (bistrispropane buffer, pH 7.5, pH 7.5, Table 9, read-out: Solubility pH 7.5) was greater than 200 µM; in series [1] (setting [9]) it was greater than 200 µM; in series [1] (setting [10]), greater than 200 µM; in series [1] (setting [11]) it was greater than 200 µM; in series [1] (setting [12]) it was greater than 200 µM; in series [1] (setting [13]), greater than 200 µM. In series [1] (setting [14]), the solubility at 18 h was greater than 200 µM. The EC50 in series [2] is 60.5 pM; in series [3], 56 pM.
As to `CC[C@H](C)[C@H](NC(=O)[C@@H]1CCCN1C(=O)CNC(=O)[C@H](Cc1ccccc1)NC(=O)[C@H](CC(N)=O)NC(=O)[C@H](CC(N)=O)NC(=O)[C@H](CO)NC(=O)[C@H](CO)NC(=O)[C@H](Cc1c[nH]cn1)NC(=O)[C@H](Cc1c[nH]cn1)NC(=O)[C@H](CC(C)C)NC(=O)[C@H](Cc1ccccc1)NC(=O)[C@H](CCC(=O)O)NC(=O)[C@H](C)NC(=O)[C@H](CC(C)C)NC(=O)[C@H](CCCNC(=N)N)NC(=O)[C@H](CCC(N)=O)NC(=O)[C@@H](NC(=O)[C@H](C)NC(=O)[C@@H]1CSSC[C@H](NC(=O)[C@H](Cc2c[nH]cn2)NC(=O)[C@H](Cc2c[nH]cn2)NC(=O)[C@H](Cc2c[nH]cn2)NC(=O)CC[C@H](NC(=O)CCCCCCCCCCCCCCCCCCC(=O)O)C(=O)O)C(=O)N[C@@H](Cc2c[nH]cn2)C(=O)N[C@@H]([C@@H](C)O)C(=O)N[C@@H](C)C(=O)N[C@@H]([C@@H](C)O)C(=O)N1)[C@@H](C)O)C(=O)N[C@@H](CC(C)C)C(=O)N1CCC[C@H]1C(=O)N1CCC[C@H]1C(=O)N[C@H](C(=O)N[C@@H](CC(N)=O)C(=O)N[C@H](C(=O)NCC(=O)N[C@@H](CO)C(=O)N[C@@H](Cc1c[nH]cn1)C(=O)N[C@H](C(=O)N[C@@H](Cc1ccc(O)cc1)C(N)=O)[C@@H](C)O)C(C)C)[C@@H](C)O` [Example 32, N-alpha-[(S)-4-Carboxy-4-(19-carboxynonadecanoylamino)butyryl]-His-His-[His1,His3,Glu14,His17,His35]-pramlintide] ({C20 diacid-γGlu}-HHHCHTATCATQRLAEFLHHSSNNFGPILPPTNVGSHTY-NH2; disulfide 4-9 (inferred)), the solubility at 18 h in series [1] (setting [4]) is greater than 200 µM; in series [1] (setting [5]), 6 µM (≈ 28.7 µg/mL); in series [1] (setting [9]) it was 6 µM (≈ 28.7 µg/mL); in series [1] (setting [10]), 55 µM (≈ 263 µg/mL); in series [1] (setting [11]) it was greater than 200 µM; in series [1] (setting [12]) it was greater than 200 µM. The solubility at 18 h in series [1] (setting [13]) and in series [1] (setting [14]) was greater than 200 µM throughout. The EC50 in series [2] is 543 pM; in series [3] it was 603 pM.
On to `CC[C@H](C)[C@H](NC(=O)[C@@H]1CCCN1C(=O)CNC(=O)[C@H](Cc1ccccc1)NC(=O)[C@H](CC(N)=O)NC(=O)[C@H](CC(N)=O)NC(=O)[C@H](CO)NC(=O)[C@H](CO)NC(=O)[C@H](Cc1c[nH]cn1)NC(=O)[C@H](CCCNC(=N)N)NC(=O)[C@H](CC(C)C)NC(=O)[C@H](Cc1ccccc1)NC(=O)[C@H](CCC(=O)O)NC(=O)[C@H](C)NC(=O)[C@H](CC(C)C)NC(=O)[C@H](CCCNC(=N)N)NC(=O)[C@H](CCC(N)=O)NC(=O)[C@@H](NC(=O)[C@H](C)NC(=O)[C@@H]1CSSC[C@H](NC(=O)[C@H](CCCCN)NC(=O)[C@H](CCC(=O)O)NC(=O)CC[C@H](NC(=O)CCCCCCCCCCCCCCCCC(=O)O)C(=O)O)C(=O)N[C@@H](CC(N)=O)C(=O)N[C@@H]([C@@H](C)O)C(=O)N[C@@H](C)C(=O)N[C@@H]([C@@H](C)O)C(=O)N1)[C@@H](C)O)C(=O)N[C@@H](CC(C)C)C(=O)N1CCC[C@H]1C(=O)N1CCC[C@H]1C(=O)N[C@H](C(=O)N[C@@H](CC(N)=O)C(=O)N[C@H](C(=O)NCC(=O)N[C@@H](CO)C(=O)N[C@@H](Cc1c[nH]cn1)C(=O)N[C@H](C(=O)N[C@@H](Cc1ccc(O)cc1)C(N)=O)[C@@H](C)O)C(C)C)[C@@H](C)O` [Example 62, N-alpha-[(S)-4-Carboxy-4-(17-carboxyheptadecanoylamino)butyryl]-Glu-[Glu14,Arg17,His35]-pramlintide] ({C18 diacid-γGlu}-EKCNTATCATQRLAEFLRHSSNNFGPILPPTNVGSHTY-NH2; disulfide 3-8 (inferred); C-terminus assumed), for which the solubility at 18 h in series [1] (setting [4]), in series [1] (setting [5]), in series [1] (setting [6]), in series [1] (setting [7]), in series [1] (setting [8]) and in series [1] (setting [9]) was greater than 200 µM each time. The solubility at 18 h in series [1] (setting [10]), in series [1] (setting [11]), in series [1] (setting [12]), in series [1] (setting [13]) and in series [1] (setting [14]) was greater than 200 µM each time. The EC50 in series [2] amounted to 1070 pM; in series [3], 172 pM.
